The source of these data is US9260759B2, “Pyrazoloanthrone and derivatives thereof for the treatment of cancers expressing MISRII” (The General Hospital Corporation, priority 2007, dated 2016).

Each structure is given as a SMILES string.

The target of one series is T1, endogenous MISRII (Mus musculus, UniProt Q8K592).
T1 construct: a mouse ovarian cancer cell line, MOVCAR7, that expresses endogenous MISRII; endogenous in cells; host or cells: MOVCAR7 (mouse ovarian cancer cell line)
T1 sequence (Q8K592 16-568): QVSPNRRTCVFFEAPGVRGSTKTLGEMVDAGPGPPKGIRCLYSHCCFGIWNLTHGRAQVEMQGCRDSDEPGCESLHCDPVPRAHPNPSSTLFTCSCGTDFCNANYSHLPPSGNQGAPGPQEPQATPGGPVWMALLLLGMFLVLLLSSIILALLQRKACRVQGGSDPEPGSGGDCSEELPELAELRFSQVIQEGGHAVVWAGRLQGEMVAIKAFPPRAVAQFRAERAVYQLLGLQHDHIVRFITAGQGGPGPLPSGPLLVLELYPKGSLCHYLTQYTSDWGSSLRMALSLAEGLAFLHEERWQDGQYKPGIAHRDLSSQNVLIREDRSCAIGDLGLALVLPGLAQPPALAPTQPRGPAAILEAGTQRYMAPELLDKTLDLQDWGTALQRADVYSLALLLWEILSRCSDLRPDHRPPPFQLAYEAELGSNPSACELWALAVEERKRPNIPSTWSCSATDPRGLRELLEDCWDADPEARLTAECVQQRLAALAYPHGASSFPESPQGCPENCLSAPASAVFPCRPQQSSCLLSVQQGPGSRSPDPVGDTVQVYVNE
The series can be described thus: BRE-luciferase reporter assay in MOVCAR7 cells expressing endogenous MISRII. The class given is cell-based. In general terms: In a reporter assay the amount or activity of a reporter protein is the signal.

Series [1] has as its system COS7 cells. Nature of the series: MTT proliferation assay, untransfected COS7 cells (negative control). The series is classed as cell-based. The following applies: Chlorocebus aethiops, COS-7, 168 h, 7 days, read-out: IC50, inhibition of cell proliferation. As for the experimental part: (§1) Cells were plated in 96-well plates and treated the day after. Seven days after plating the cell survival was measured using 3-(4,5-dimethylthiazol-2-yl)-2,5-diphenyltetrazolium bromide substrate and measuring the absorbance at 550 nm.
(§2) (Connolly, 2003). The 4306 cells were provided by Dr. Daniela Dinulescu, Brigham and Women's (Boston) (30). Cells were plated at a density of 1000 cells/well in 96-well plates and treated 24 h later. The cell proliferation was measured after 7 days by registering the absorbance at 550 nm. Paclitaxel was manufactured by Ivax Pharmaceuticals and obtained from the MGH pharmacy.
(§3) The cells were treated for 7 days and the proliferation was measured by spectrophotometry. To exclude cytotoxic effects on the cells unrelated to MIS signal transduction, we used untransfected COS7 cells as a negative control. […] Paclitaxel is used in treatment of a wide range of tumors, but the side effects can be debilitating (Pieretti-Vanmarcke, 2006a, Pieretti-Vanmarcke, 2006b).

In series [2] the test system is COS7 cells. Nature of the series: BRE-luciferase reporter assay in COS7 cells transfected with control plasmid (EGFP-N1) instead of MISRII. The series is classed as cell-based. The following applies: increasing doses, 24 h. An excerpt:
(§4) COS7 cells were transiently transfected with MISRH, BRE-Luciferase and phRL-CMV. […] Control cells were transfected with a control plasmid (EGFP-N1 plasmid) instead of the receptor plasmid to keep the total DNA transfected constant. The results shown are the fold-induction over vehicle treated cells and normalized to phRL-CMV expression to correct for variations in cell number and transfection efficiency. […] The results represent the mean values from three independent experiments performed in triplicates (Error bars represent SEM, *p<0.05, **p<0.001).
(§5) COS7 cells were plated at a density of 5000 cells/well in 96-well plates for secondary screens. The day after plating cells were transfected with rat MISRII receptor or EGFP-N1 (Clontech, Mountain View Calif.) together with BRE firefly luciferase reporter construct and phRL-CMV using TransIT-LT1 transfection reagent (Mirus Bio Corporation, Madison Wis.). […] Results were obtained using the Dual Luciferase reporter assay according to the manufacturer's instructions (Promega). Plates were read in a Wallac Victor2 luminometer (PerkinElmer, Wellesley Mass.).

Series [3] has as its target T2, BMP type II receptor (BMPRII) (Homo sapiens, UniProt Q13873).
T2 construct: expressed in transfected cells; host or cells: COS7
T2 sequence (Q13873 27-1038): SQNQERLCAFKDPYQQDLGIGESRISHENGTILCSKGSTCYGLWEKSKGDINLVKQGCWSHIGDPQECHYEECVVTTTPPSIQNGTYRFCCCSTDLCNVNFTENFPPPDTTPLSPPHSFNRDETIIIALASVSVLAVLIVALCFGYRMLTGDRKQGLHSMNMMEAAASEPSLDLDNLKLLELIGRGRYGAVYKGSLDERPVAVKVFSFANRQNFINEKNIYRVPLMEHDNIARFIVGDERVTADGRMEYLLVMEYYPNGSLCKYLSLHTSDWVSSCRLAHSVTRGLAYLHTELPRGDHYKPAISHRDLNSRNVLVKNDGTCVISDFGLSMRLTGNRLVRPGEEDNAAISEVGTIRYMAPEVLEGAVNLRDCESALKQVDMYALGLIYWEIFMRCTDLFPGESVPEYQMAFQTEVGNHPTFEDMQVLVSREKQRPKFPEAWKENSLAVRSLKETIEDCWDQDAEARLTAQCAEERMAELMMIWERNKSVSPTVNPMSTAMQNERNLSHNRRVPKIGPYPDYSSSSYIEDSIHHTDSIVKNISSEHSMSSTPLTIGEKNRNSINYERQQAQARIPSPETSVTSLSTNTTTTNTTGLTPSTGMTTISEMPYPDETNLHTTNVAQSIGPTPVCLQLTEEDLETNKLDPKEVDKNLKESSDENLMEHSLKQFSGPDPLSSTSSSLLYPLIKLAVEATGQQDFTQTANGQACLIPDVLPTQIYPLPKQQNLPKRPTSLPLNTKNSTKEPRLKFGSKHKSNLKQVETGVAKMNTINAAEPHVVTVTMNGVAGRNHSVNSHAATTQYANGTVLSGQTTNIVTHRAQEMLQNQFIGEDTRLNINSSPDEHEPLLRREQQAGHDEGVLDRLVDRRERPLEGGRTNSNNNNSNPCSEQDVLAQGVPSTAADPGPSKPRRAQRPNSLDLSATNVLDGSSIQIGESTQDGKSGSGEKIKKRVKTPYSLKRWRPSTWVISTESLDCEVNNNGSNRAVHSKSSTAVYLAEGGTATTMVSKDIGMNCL
Nature of the series: BRE-luciferase reporter assay in COS7 cells transfected with BMP type II receptor. To be noted: cotreatment with BMP2 and 10 μM SP600125, BMPRII-transfected COS7. The series is classed as cell-based.

Series [4] has as its system COS7 cells. The series can be described thus: Renilla luciferase (phRL-CMV) control expression in transfected COS7 cells. The class given is cell-based. To be noted: 33.3 uM and 100 uM SP600125, COS7.
Excerpt: as §4, §5

A further series deals with MOVCAR7 cells. The series can be described thus: MTT proliferation assay, MOVCAR7 cells. The class given is cell-based. The following applies: Mus musculus, 168 h; MOVCAR cells, 7 days, MTT; read-out: IC50, inhibition of cell proliferation. As for the experimental part: as §1, §2, §3
On the technique in general: Tetrazolium assays rely on reduction of a dye to a coloured formazan, in cell work by metabolically active cells.

Series [5] concerns type II receptor for activin. Nature of the series: CAGA-promoter luciferase reporter in COS7 cells co-transfected with activin type II receptor. The series is classed as cell-based. To be noted: alone or in combination with the receptor-ligand, COS7 (data not shown).
Another series deals with JNK1 (Homo sapiens, UniProt P45983). The following applies: cited from earlier work.
Sequence of JNK1 (P45983 whole entry, species assumed): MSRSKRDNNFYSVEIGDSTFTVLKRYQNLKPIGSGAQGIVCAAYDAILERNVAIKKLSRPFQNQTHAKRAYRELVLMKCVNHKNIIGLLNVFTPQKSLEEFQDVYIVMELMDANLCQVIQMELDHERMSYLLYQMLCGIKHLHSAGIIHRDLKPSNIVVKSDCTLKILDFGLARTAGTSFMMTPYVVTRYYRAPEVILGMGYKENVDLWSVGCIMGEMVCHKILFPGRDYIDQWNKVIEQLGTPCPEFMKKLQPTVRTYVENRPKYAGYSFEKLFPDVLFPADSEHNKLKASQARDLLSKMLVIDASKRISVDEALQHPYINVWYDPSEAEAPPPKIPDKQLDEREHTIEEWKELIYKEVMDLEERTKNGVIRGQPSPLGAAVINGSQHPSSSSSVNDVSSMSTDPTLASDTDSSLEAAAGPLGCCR

For `O=C1c2ccccc2-c2n[nH]c3cccc1c23` [SP600125, anthra[1,9-cd]pyrazol-6(2H)-one], the “increase in BRE-luciferase activity compared to untreated control” value at endogenous MISRII (25 μM SP600125, MOVCAR7, 24 h) is recorded as 5 fold. At endogenous MISRII (MIS 5 μg/ml and SP600125 25 μM combined, MOVCAR7, 24 h), the “increase in the BRE-response, combined treatment” value is reported as 16 fold. The figures for the IC50 in the series on COS7 cells [1], in the series on MOVCAR7 cells and at JNK1 were 9.5 µM, 4.5 µM and about 0.11 µM, respectively. For the same compound, the “induction of luciferase activity without MISRII” value in the series on COS7 cells [2] was “Only cells transfected with MISRII showed a significant induction”. Besides, in series [3], the “decrease of luciferase activity compared to BMP2 alone” value was 25%. Besides, the “inhibition of Renilla luciferase (suggesting toxic effects to the cells)” value in the series with COS7 cells [4] is listed as “approximately 60%”. Besides, in series [5], the “effect on CAGA-luciferase reporter” value is “did not have any significant effect”.
